# According to patent US20260242759A1, “GQ/11 Protein Peptidomimetics” (Vrije Universiteit Brussel, priority 2022, published 2026):
# Non-standard residues stand in square brackets, D forms with d. Residues, ends and D or L forms follow the SMILES beside them. Cha = N[C@@H](CC1CCCCC1)C(=O)O
# Assays:
# HEK293 1C8 cells = assay: MTT cytotoxicity assay; type: cell-based, human; details: varying concentrations up to 40 μM, 3 h 45 min
# Description: Cells were washed two times with PBS and incubated with 3-(4,5-dimethylthiazol-2-yl)-2,5-diphenyltetrazolium bromide (MTT) during 3 h, at 37° C. Afterwards, cells were washed once with PBS and then incubated for 10 min with DMSO. Plates were analysed with a Tecan Spark 10 M microplate reader.
# An MTT assay was used to assess the cytotoxicity of the non-fluorescent Gq/11 peptidomimetics of Example 5. An MTT assay is a colorimetric test that evaluates the cell metabolic activity and reflects the cell viability.
# ghrelin receptor = target: T1, ghrelin receptor (Homo sapiens, UniProt Q92847); assay: IP-One Gq assay; type: cell-based; details: peptidomimetic at 10 μM, varying MK0677; FIG. 8
# T1 construct: expressed in transfected cells; host or cells: HEK293 cells overexpressing the ghrelin receptor
# Description: IP-One assays were conducted by using a homogeneous time-resolved fluorescence resonance energy transfer (TRFRET) assay (cisbio, IP-One Gq kit). The assays were performed on 384-well plates, containing 5000 cells/well. The HEK293 cells, in stimulation buffer (1×), were incubated with 5 or 10 μM of peptides (in stimulation buffer) during 1 h at 37° C. […] Finally, the d2-labeled IP1 and anti-IP1-cryptate, diluted in lysis buffer, were added to each well and incubated at room temperature. After 2 h of incubation in the dark, the plates were analyzed using the PHERAstar microplate reader.
# The IP-One Gq assay detects the accumulation of inositol monophosphate (IP1), a metabolite produced following phospholipase C activation.
# The assays were performed on 384-well plates containing HEK293 cells that overexpress the ghrelin receptor. First, the Gq/11 peptidomimetics were incubated during 1 h to allow penetration in the cells. […] After 45 min of incubation, the cells were lysed and d2-labeled IP1 (acceptor, 665 nm) was exogenously added to compete with the native unlabeled IP1 for binding with the anti-IP1-Cryptate (donor, 620 nm). Fluorescence was measured and the fluorescence ratio (665 nm/620 nm) was determined.
# [1] = target: T2, human ghrelin receptor (GHSR) (Homo sapiens, UniProt Q92847, C146S/C304S); assay: Bimane fluorescence assay on purified ghrelin receptor in nanodiscs; type: biochemical; details: bimane labeled GHSR, in presence of JMV1843
# T2 construct: integrin α5 fragment (N); polyhistidine tag (C); made in house; host or cells: E. coli BL21(DE3)
# In short: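 E. coli-expressed human ghrelin receptor (cysmin mutant, N-terminal integrin α5 fragment, C-terminal His-tag) purified into lipid nanodiscs and labelled with monobromobimane at Cys255 (16 h, 4° C, dark). Labelled receptor (0.2 μM final) incubated 2 h at 20° C with or without JMV1843 (20 μM) and peptidomimetics at varying molar ratios, or Gαqβ1γ2 at 1:5 receptor:G protein; emission scanned 440–520 nm with excitation at 380 nm for λmax shift.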
# T1 sequence (Q92847 whole entry): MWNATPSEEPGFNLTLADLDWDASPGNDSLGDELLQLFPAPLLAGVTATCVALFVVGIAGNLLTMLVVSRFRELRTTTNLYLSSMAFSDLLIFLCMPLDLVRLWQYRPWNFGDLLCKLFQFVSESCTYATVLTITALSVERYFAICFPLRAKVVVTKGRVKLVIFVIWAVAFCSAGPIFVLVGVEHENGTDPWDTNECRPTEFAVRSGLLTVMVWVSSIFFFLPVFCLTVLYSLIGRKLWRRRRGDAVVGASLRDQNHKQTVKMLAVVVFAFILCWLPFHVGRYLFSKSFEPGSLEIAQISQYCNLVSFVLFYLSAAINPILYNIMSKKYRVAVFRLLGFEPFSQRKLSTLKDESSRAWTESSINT
# T2 sequence (Q92847 whole entry C146S/C304S, the tested form may be a part): as the sequence (Q92847 whole entry) above, with C146S, C304S counted along it
structure (smiles),measurement,setting,value
CC[C@H](C)[C@H](NC(=O)[C@@H](NC(=O)[C@H](CC(=O)O)NC(=O)[C@H](CCCCN)NC(=O)[C@@H](NC(=O)[C@H](C)NC(=O)[C@H](C)NC(=O)[C@H](Cc1ccccc1)NC(=O)[C@H](CCCCN)NC(=O)[C@H](CCCCN)NC(=O)[C@H](CCCCN)NC(C)=O)C(C)C)[C@@H](C)O)C(=O)N[C@@H](CC(C)C)C(=O)N[C@@H](CCC(N)=O)C(=O)N[C@@H](CC(C)C)C(=O)N[C@@H](CC(N)=O)C(=O)N[C@@H](CC(C)C)C(=O)N[C@@H](CCCCN)C(=O)N[C@@H](CCC(=O)O)C(=O)N[C@@H](Cc1ccc(O)cc1)C(=O)N[C@@H](CC(N)=O)C(=O)N[C@@H](CC1CCCCC1)C(=O)N[C@H](C(=O)O)C(C)C [SBL-GQ-04] (Ac-KKKFAAVKDTILQLNLKEYN[Cha]V-OH),cytotoxicity / viability,HEK293 1C8 cells,No cytotoxicity
same,receptor activation / fluorescence ratio (665 nm/620 nm) vs absence of peptidomimetic,ghrelin receptor,Almost no difference in receptor activation
same,conformational change in the receptor,[1],not able to induce a conformational change
